{
  "source": "patent US12186413B2",
  "about": "“Non-cellular root canal filler and non-cellular dental tissue regeneration promotion kit” (KOWA COMPANY, LTD., priority 2019, dated 2025)",
  "key": {"[1]": {"system": "dental pulp", "test": "Dental pulp regeneration after pulpectomy in young dogs with non-cellular root canal filler", "format": "in vivo, dog", "conditions": "for dental pulp regeneration (H-E staining, morphological observation) / infiltration / internal absorption of inflammatory cells: 12-month-old dogs; for dental pulp regeneration (H-E staining, morphological observation) / infiltration / internal absorption of inflammatory cells / regeneration of dental pulp-like tissues (H-E staining): trypsin pretreatment; for dental pulp regeneration (H-E staining, morphological observation): 1.25 μg compound B or 0.83 μg SB328437 + 150 ng G-CSF in 20 μl collagen; for infiltration / internal absorption of inflammatory cells: filler with G-CSF and collagen; for amount of the regenerated dental pulp (ratio of regenerated dental pulp area to dental pulp cavity area): compound B filler compared with SB328437 filler", "method": "After general anesthesia, pulpectomy was performed for maxillary and mandibular right and left anterior teeth in young (12-month-old) dogs. The openings were enlarged to the apex of the root with #55, then washed alternately with a 5% sodium hypochlorite solution and a 3% hydrogen peroxide solution, further washed with saline, dried, and then temporarily sealed with a resin completely. At 3 to 12 days after the pulpectomy, the temporary seals were removed, and the openings were washed alternately and washed with saline again. Then, the root canals were filled with 3% EDTA (Smear Clean, Nippon Shika Yakuhin Co., Ltd.), treated for 2 minutes, further washed with saline, and dried. Then, the root canals were pretreated by the application of trypsin preparation (5 mg of Francetin T powder (2,500 USP crystal trypsin per 10 mg, Mochida Pharmaceutical Co., Ltd.)/ml of 0.5% nanobubble water (prepared with Foamest 8 (NAC Corp.); see Koichiro Iohara and Misako Nakajima “Enhanced Delivery of Antibacterial Nanopolymers with Nanobubbles for the Complete Disinfection of the Root Canal System in a Canine Model of Intractable Periapical Disease”, The Japanese Journal Of Conservative Dentistry, Vol. 63, No. 1, p. 73-82) for 10 minutes, and then washed with saline. Subsequently, a CCR3 antagonist (1.25 μg of compound B or 0.83 μg of SB328437 (Tocris Bioscience)) as a regeneration promoting compound and 150 ng of G-CSF (Neutrogin, Chugai Pharmaceutical Co., Ltd.) as a chemotactic factor were added to 20 μl of extracellular matrix collagen (Koken Atelocollagen Implant, Koken Co., Ltd.) to prepare a non-cellular root canal filler, which was then filled into the root canals. Then, a gelatin sponge for hemostasis (Spongel, Astellas Pharma Inc.) was placed thereon, and the cavities were completely sealed with glass ionomer cement and a photopolymerizable resin. Then, 28 days after transplantation, the teeth were extracted, and 5 μm paraffin sections were prepared on longitudinal sections according to a standard method, stained with H-E, and then morphologically observed. The amount of the regenerated dental pulp was evaluated by measuring the ratio of the area of regenerated dental pulp to the area of a dental pulp cavity as to four sections per sample, and calculating the mean of four samples. Angiogenesis was evaluated by staining day 28 specimens with Fluorescein labeled Griffonia simplicifolia (Bandeiraea simplicifolia) Lectin I (GSL I, BSL I) and Fluorescein labeled Galanthus nivalis (Snowdrop) Lectin (GNL) (Vector Laboratories) (20 μg/ml) for 15 minutes, followed by comparative examination. Neurite extension was evaluated by immunostaining day-28 specimens with an anti-PGP9.5 antibody (UltraClone, 1:10,000), followed by comparative examination.\nAfter general anesthesia, pulpectomy was performed for maxillary and mandibular right and left anterior teeth in young (11-month-old) dogs. The openings were enlarged to the apex of the root with #55, then washed alternately with a 5% sodium hypochlorite solution and a 3% hydrogen peroxide solution, and further washed with saline. The root canals were thoroughly dried with a paper point and temporarily sealed with cement and a resin completely after hemostasis. Then, 8 days after the pulpectomy, the temporary seals were removed, and the openings were washed alternately and washed with saline again. Then, the root canals were filled with 3% EDTA (Smear Clean, Nippon Shika Yakuhin Co., Ltd.), treated for 2 minutes, further washed with saline, and dried. Then, the root canals were pretreated by the application of a trypsin preparation (5 mg of Francetin T powder (2,500 USP crystal trypsin per 10 mg), Mochida Pharmaceutical Co., Ltd.)/ml of 0.5% nanobubble water (prepared with Foamest 8 (NAC Corp.); as described in Example 1)) for 10 minutes, and then washed with saline. […]"}, "[2]": {"system": "dental pulp", "conditions": "cited from earlier work"}, "[3]": {"system": "dental pulp stem cells", "conditions": "dentin surfaces treated with trypsin in vitro; cited from earlier work"}, "[4]": {"conditions": "Example 3, compound B filler, 28 days"}, "[5]": {"conditions": "Example 3, with and without trypsin pretreatment, 28 days"}},
  "note": "Where two headings read alike, the source gives them in different places.",
  "data": [
    {"compound": "COC(=O)[C@H](Cc1ccc([N+](=O)[O-])cc1)NC(=O)c1cccc2ccccc12", "note": "[SB328437, reference compound]", "values": [
      {"measurement": "dental pulp regeneration (H-E staining, morphological observation)", "setting": "[1]; Example 1, 28 days", "result": "found to cause dental pulp regeneration of loose connective tissues rich in blood vessels"},
      {"measurement": "infiltration / internal absorption of inflammatory cells", "setting": "[1]; Example 1, 28 days", "result": "neither the infiltration nor internal absorption of inflammatory cells was observed"},
      {"measurement": "amount of the regenerated dental pulp (ratio of regenerated dental pulp area to dental pulp cavity area)", "setting": "[1]; Example 1, 28 days", "result": "No statistically significant difference"},
      {"measurement": "angiogenesis (lectin staining)", "setting": "[1]; Example 1, day 28 specimens", "result": "confirmed"},
      {"measurement": "neurite extension (PGP9.5 immunostaining)", "setting": "[1]; Example 1, day 28 specimens", "result": "confirmed"},
      {"measurement": "odontoblast-like cell adhesion to dentin side wall / dentin-like hard tissue formation", "setting": "[1]; Example 1, day 28 specimens", "result": "odontoblast-like cells adhere to the side wall of the dentin to form dentin-like hard tissues"}
    ]},
    {"compound": "CS(=O)(=O)Nc1cccc(CNCCN2Cc3ccc(F)cc3CC2Cc2ccc(F)cc2)c1.O=C(O)CC(O)(CC(=O)O)C(=O)O", "note": "(single isomer, unassigned; (+)) [compound C, (+)-N-[3-(methanesulfonylamino)benzyl]-2-[6-fluoro-3-(4-fluorobenzyl)-3,4-dihydroisoquinolin-2(1H)-yl]ethanamine monocitrate]", "values": [
      {"measurement": "regeneration of dental pulp-like tissues (H-E staining)", "setting": "[1]; Example 4, 11-month-old dogs, 1.2 μg compound C + 150 ng G-CSF in collagen, 28 days", "result": "found to sufficiently regenerate dental pulp-like tissues"},
      {"measurement": "area of the dentin (ratio to area of tooth) versus filler containing no compound C", "setting": "[1]; Example 4, 28 days", "result": "tended to increase the area of the dentin"},
      {"measurement": "density of dentin cells (within 1 mm from root canal side wall) versus filler containing no compound C", "setting": "[1]; Example 4, 28 days", "result": "increased the density of dentin cells"}
    ]},
    {"compound": "CC(C)Nc1ccc(CNCCN2Cc3ccc(F)cc3CC2Cc2ccc(F)cc2)cc1.O=C(O)/C=C/C(=O)O", "note": "(single isomer, unassigned; (+)) [compound B, (+)-4-[[2-[6-fluoro-3-(4-fluorobenzyl)-3,4-dihydroisoquinolin-2(1H)-yl]ethylamino]methyl]-N-isopropylaniline monofumarate]", "values": [
      {"measurement": "dental pulp regeneration (H-E staining, morphological observation)", "setting": "[1]; Example 1, 28 days", "result": "found to cause dental pulp regeneration of loose connective tissues rich in blood vessels"},
      {"measurement": "infiltration / internal absorption of inflammatory cells", "setting": "[1]; Example 1, 28 days", "result": "neither the infiltration nor internal absorption of inflammatory cells was observed"},
      {"measurement": "amount of the regenerated dental pulp (ratio of regenerated dental pulp area to dental pulp cavity area)", "setting": "[1]; Example 1, 28 days", "result": "No statistically significant difference"},
      {"measurement": "angiogenesis (lectin staining)", "setting": "[1]; Example 1, day 28 specimens", "result": "confirmed"},
      {"measurement": "neurite extension (PGP9.5 immunostaining)", "setting": "[1]; Example 1, day 28 specimens", "result": "confirmed"},
      {"measurement": "odontoblast-like cell adhesion to dentin side wall / dentin-like hard tissue formation", "setting": "[1]; Example 1, day 28 specimens", "result": "odontoblast-like cells adhere to the side wall of the dentin to form dentin-like hard tissues"},
      {"measurement": "regeneration of dental pulp-like tissues (H-E staining)", "setting": "[1]; Example 2, 11-month-old dogs, 1.25 μg compound B + 150 ng G-CSF in collagen, 28 days", "result": "found to sufficiently regenerate dental pulp-like tissues"},
      {"measurement": "amount of the regenerated dental pulp versus filler containing no compound B", "setting": "[1]; Example 2, 28 days", "result": "Statistically significant difference"},
      {"measurement": "angiogenesis (BS-1 lectin staining) versus filler containing no compound B", "setting": "[1]; Example 2, 28 days", "result": "similar"},
      {"measurement": "neurite extension (PGP9.5 immunostaining) versus filler containing no compound B", "setting": "[1]; Example 2, 28 days", "result": "similar"},
      {"measurement": "regeneration of dental pulp tissues (H-E staining)", "setting": "[1]; Example 3, 11-month-old dogs, with or without trypsin pretreatment, 1.25 μg compound B + 150 ng G-CSF in collagen, 28 days", "result": "regeneration of dental pulp tissues was observed, regardless of whether trypsin pretreatment was performed or not"},
      {"measurement": "amount of regenerated dental pulp, with versus without trypsin pretreatment", "setting": "[1]; [4]", "result": "tended to slightly increase the amount of regenerated dental pulp, albeit with no statistically significant difference"},
      {"measurement": "odontoblast-like cell adhesion to dentin side wall and dentin-like hard tissue amount, with versus without trypsin pretreatment", "setting": "[1]; [4]", "result": "tended to allow more odontoblast-like cells to adhere to the side wall of the dentin and form dentin-like hard tissues in a slightly higher amount"},
      {"measurement": "angiogenesis (BS-1 lectin staining)", "setting": "[1]; [5]", "result": "similarly observed in both these cases"},
      {"measurement": "neurite extension (PGP9.5 immunostaining)", "setting": "[1]; [5]", "result": "similarly observed in both these cases"},
      {"measurement": "dental pulp regeneration, odontoblast-like cell adhesion and dentin-like hard tissue formation", "setting": "[1]; Example 3, without trypsin pretreatment, 28 days", "result": "regenerates the dental pulp with angiogenesis and neurite extension"}
    ]},
    {"compound": "trypsin", "values": [
      {"measurement": "dental pulp regeneration", "setting": "[2]; middle-aged and elderly dogs, with dental pulp stem cell transplantation", "result": "promoted"},
      {"measurement": "dental pulp regeneration", "setting": "[2]; without the transplantation of dental pulp stem cells", "result": "rarely observed"},
      {"measurement": "dental pulp regeneration", "setting": "[2]; young dogs, with dental pulp stem cell transplantation", "result": "not found to be effective"},
      {"measurement": "adhesion of the cells", "setting": "[3]", "result": "increased the adhesion of the cells"},
      {"measurement": "differentiation into odontoblasts", "setting": "[3]", "result": "exhibited enhancement in differentiation into odontoblasts"}
    ]}
  ]
}
